Among the data in ChEMBL document CHEMBL5537115, “New broad-spectrum and potent antibacterial agents with dual-targeting mechanism: Promoting FtsZ polymerization and disrupting bacterial membranes” (Eur J Med Chem, 2024) are MIC values, retold here.

What all share (format): functional
For assay [1], the system named is Enterococcus faecalis. The assay can be described thus: Antibacterial activity against vancomycin-resistant Enterococcus faecalis ATCC51299 assessed as bacterial growth inhibition incubated for 20 hrs by CLSI based broth microdilution method. (In general: In broth dilution the organism is exposed to a series of concentrations in liquid medium.)
Assay [2] concerns Staphylococcus epidermidis. The assay can be described thus: Antibacterial activity against penicillin-resistant Staphylococcus epidermidis clinical isolate assessed as bacterial growth inhibition incubated for 20 hrs by CLSI based broth microdilution method.
A further assay concerns Bacillus pumilus. The assay can be described thus: Antibacterial activity against penicillin-susceptible Bacillus pumilus CMCC63202 assessed as bacterial growth inhibition incubated for 20 hrs by CLSI based broth microdilution method.
For assay [3], the system named is Staphylococcus aureus. The assay is described as follows: Antibacterial activity against erythromycin-susceptible Staphylococcus aureus ATCC25923 assessed as bacterial growth inhibition incubated for 20 hrs by CLSI based broth microdilution method.
In assay [4] the test system is Staphylococcus aureus. The assay can be described thus: Antibacterial activity against methicillin-resistant Staphylococcus aureus ATCC43300 assessed as bacterial growth inhibition incubated for 20 hrs by CLSI based broth microdilution method.
Assay [5] relates to Enterococcus faecalis. The assay is described as follows: Antibacterial activity against vancomycin-susceptible Enterococcus faecalis ATCC29212 assessed as bacterial growth inhibition incubated for 20 hrs by CLSI based broth microdilution method.
Assay [6] relates to Streptococcus pyogenes. The assay can be described thus: Antibacterial activity against erythromycin-resistant Streptococcus pyogenes 2 clinical isolate assessed as bacterial growth inhibition incubated for 20 hrs by CLSI based broth microdilution method.
Assay [7] has as its system Streptococcus pyogenes. The assay is described as follows: Antibacterial activity against erythromycin-susceptible Streptococcus pyogenes 1 assessed as bacterial growth inhibition incubated for 20 hrs by CLSI based broth microdilution method.
In assay [8] the test system is Staphylococcus aureus. The assay can be described thus: Antibacterial activity against Staphylococcus aureus clinical isolate assessed as bacterial growth inhibition incubated for 20 hrs by CLSI based broth microdilution method.
In a further assay the test system is Klebsiella pneumoniae. The assay is described as follows: Antibacterial activity against Klebsiella pneumoniae ATCC BAA-1902 assessed as bacterial growth inhibition incubated for 20 hrs by CLSI based broth microdilution method.
The subject of assay [9] is Escherichia coli. The assay can be described thus: Antibacterial activity against wild-type Escherichia coli BW25113 assessed as bacterial growth inhibition incubated for 20 hrs by CLSI based broth microdilution method.
The next assay deals with Acinetobacter baumannii. The assay can be described thus: Antibacterial activity against Acinetobacter baumannii ATCC19606 assessed as bacterial growth inhibition incubated for 20 hrs by CLSI based broth microdilution method.
Assay [10] concerns Enterococcus faecium. The assay is described as follows: Antibacterial activity against vancomycin-resistant Enterococcus faecium ATCC51559 assessed as bacterial growth inhibition incubated for 20 hrs by CLSI based broth microdilution method.
Assay [11] has as its system Enterococcus faecium. The assay is described as follows: Antibacterial activity against vancomycin-susceptible Enterococcus faecium ATCC19434 assessed as bacterial growth inhibition incubated for 20 hrs by CLSI based broth microdilution method.
For assay [12], the system named is Staphylococcus aureus. The assay can be described thus: Antibacterial activity against penicillin-resistant Staphylococcus aureus ATCC31007 assessed as bacterial growth inhibition incubated for 20 hrs by CLSI based broth microdilution method.
The test system of the next assay is Bacillus subtilis. The assay can be described thus: Antibacterial activity against penicillin-susceptible Bacillus subtilis ATCC9372 assessed as bacterial growth inhibition incubated for 20 hrs by CLSI based broth microdilution method.
Assay [13] relates to Escherichia coli. The assay can be described thus: Antibacterial activity against penicillin-susceptible Escherichia coli ATCC25922 assessed as bacterial growth inhibition incubated for 20 hrs by CLSI based broth microdilution method.

In brackets after ≈: the same amount, converted by molar mass.

Broadly, the MIC is the least concentration at which growth counts as inhibited. As for `CC(C)c1ccc(/C=C/c2cc(-c3ccc4ccccc4c3)[n+](C)cc2-c2ccccc2)cc1.[I-]`, the minimum inhibitory concentration (MIC) in the assay on Enterococcus faecalis [1] came out at 4 µg/mL; in assay [2], 2 µg/mL; with Bacillus pumilus, 0.5 µg/mL; with Staphylococcus aureus [3] it was 0.5 µg/mL; in the assay on Staphylococcus aureus [4], 0.5 µg/mL; with Enterococcus faecalis [5], 2 µg/mL. Moreover, the MIC in the assay on Streptococcus pyogenes [6] worked out at 4 µg/mL; in the assay with Streptococcus pyogenes [7], 0.5 µg/mL; with Staphylococcus aureus [8], 0.5 µg/mL; in the assay with Klebsiella pneumoniae it was 16 µg/mL; in the assay on Escherichia coli [9], 8 µg/mL; in the assay with Acinetobacter baumannii, 2 µg/mL. Also, the MIC in the assay on Enterococcus faecium [10] is 2 µg/mL; with Enterococcus faecium [11], 2 µg/mL; in the assay with Staphylococcus aureus [12], 2 µg/mL; in the assay on Bacillus subtilis, 0.5 µg/mL; in the assay with Escherichia coli [13], 64 µg/mL.

Consider `C[n+]1cc(-c2ccccc2)cc(/C=C/c2ccc(Br)cc2)c1-c1ccccc1.[I-]`, for which the minimal inhibitory concentration (MIC) with Enterococcus faecalis [1] was determined as 16 µg/mL; in [2] it was 8 µg/mL; in the assay with Bacillus pumilus, 8 µg/mL; in the assay on Staphylococcus aureus [3], 1 µg/mL; in the assay with Staphylococcus aureus [4], 4 µg/mL; in the assay with Enterococcus faecalis [5], 16 µg/mL. For the same compound, the MIC in the assay on Streptococcus pyogenes [6] is 4 µg/mL; with Streptococcus pyogenes [7], 4 µg/mL; with Staphylococcus aureus [8], 2 µg/mL; with Klebsiella pneumoniae, 64 µg/mL; in the assay with Escherichia coli [9] it was more than 64 µg/mL; with Acinetobacter baumannii, 8 µg/mL. In addition, the MIC came to 16 µg/mL with Enterococcus faecium [10]; 16 µg/mL in the assay on Enterococcus faecium [11]; 16 µg/mL in the assay with Staphylococcus aureus [12]; 2 µg/mL in the assay on Bacillus subtilis; 64 µg/mL in the assay with Escherichia coli [13].

With `CN(C)c1ccc(/C=C/c2cc(-c3ccccc3)[n+](C)cc2-c2ccccc2)cc1.[I-]`, the MIC in the assay on Enterococcus faecalis [1] was determined as 16 µg/mL; in assay [2], 8 µg/mL; in the assay on Bacillus pumilus, 8 µg/mL; in the assay with Staphylococcus aureus [3] it was 0.5 µg/mL; in the assay on Staphylococcus aureus [4], 2 µg/mL; with Enterococcus faecalis [5], 16 µg/mL. In addition, the MIC in the assay with Streptococcus pyogenes [6] is 8 µg/mL; with Streptococcus pyogenes [7] it was 8 µg/mL; in the assay on Staphylococcus aureus [8] it was 1 µg/mL; in the assay on Klebsiella pneumoniae, more than 64 µg/mL; in the assay with Escherichia coli [9], 64 µg/mL; in the assay with Acinetobacter baumannii, 8 µg/mL. Moreover, the MIC in the assay on Enterococcus faecium [10] was 16 µg/mL; in the assay on Enterococcus faecium [11] it was 16 µg/mL; with Staphylococcus aureus [12] it was 8 µg/mL; with Bacillus subtilis, 1 µg/mL; in the assay on Escherichia coli [13], 32 µg/mL.

In the case of `C[n+]1cc(-c2ccccc2)cc(/C=C/c2ccc(C#N)cc2)c1-c1ccccc1.[I-]`, the minimum inhibitory concentration (MIC) in the assay on Enterococcus faecalis [1] is more than 64 µg/mL; in [2], more than 64 µg/mL; in the assay with Bacillus pumilus, more than 64 µg/mL; with Staphylococcus aureus [3], 8 µg/mL; in the assay with Staphylococcus aureus [4] it was 64 µg/mL; in the assay with Enterococcus faecalis [5], more than 64 µg/mL. Also, the MIC is 32 µg/mL in the assay with Streptococcus pyogenes [6]; 32 µg/mL with Streptococcus pyogenes [7]; 32 µg/mL in the assay on Staphylococcus aureus [8]; more than 64 µg/mL in the assay with Klebsiella pneumoniae; more than 64 µg/mL in the assay on Escherichia coli [9]; 64 µg/mL in the assay on Acinetobacter baumannii. Further, the minimal inhibitory concentration (MIC) with Enterococcus faecium [10] was more than 64 µg/mL; in the assay on Enterococcus faecium [11], more than 64 µg/mL; in the assay on Staphylococcus aureus [12] it was more than 64 µg/mL; in the assay with Bacillus subtilis, 32 µg/mL; in the assay with Escherichia coli [13], more than 64 µg/mL.

Take `C[n+]1cc(-c2ccccc2)c(/C=C/c2ccc(N)cc2)cc1-c1ccccc1.[I-]`: the MIC was more than 64 µg/mL in the assay on Enterococcus faecalis [1]; 32 µg/mL in assay [2]; 16 µg/mL with Bacillus pumilus; 2 µg/mL in the assay on Staphylococcus aureus [3]; 16 µg/mL in the assay on Staphylococcus aureus [4]; 64 µg/mL in the assay on Enterococcus faecalis [5]. Also, the minimum inhibitory concentration (MIC) with Streptococcus pyogenes [6] is 16 µg/mL; with Streptococcus pyogenes [7] it was 4 µg/mL; in the assay on Staphylococcus aureus [8], 16 µg/mL; in the assay with Klebsiella pneumoniae it was more than 64 µg/mL; in the assay with Escherichia coli [9], more than 64 µg/mL; in the assay on Acinetobacter baumannii, 32 µg/mL. Also, the minimum inhibitory concentration (MIC) in the assay on Enterococcus faecium [10] is 64 µg/mL; in the assay with Enterococcus faecium [11], more than 64 µg/mL; with Staphylococcus aureus [12], 64 µg/mL; in the assay on Bacillus subtilis, 4 µg/mL; with Escherichia coli [13] it was more than 64 µg/mL.

As for `C[n+]1cc(-c2ccccc2)cc(/C=C/c2cccc(Br)c2)c1-c1ccccc1.[I-]`, the minimal inhibitory concentration (MIC) was 16 µg/mL in the assay with Enterococcus faecalis [1]; 8 µg/mL in assay [2]; 16 µg/mL in the assay on Bacillus pumilus; 4 µg/mL with Staphylococcus aureus [3]; 4 µg/mL in the assay on Staphylococcus aureus [4]; 16 µg/mL in the assay on Enterococcus faecalis [5]. The minimal inhibitory concentration (MIC) in the assay with Streptococcus pyogenes [6] is 8 µg/mL; with Streptococcus pyogenes [7] it was 4 µg/mL; with Staphylococcus aureus [8] it was 2 µg/mL; in the assay on Klebsiella pneumoniae, 64 µg/mL; with Escherichia coli [9] it was more than 64 µg/mL; in the assay on Acinetobacter baumannii it was 16 µg/mL. The minimum inhibitory concentration (MIC) is 16 µg/mL with Enterococcus faecium [10]; 16 µg/mL with Enterococcus faecium [11]; 16 µg/mL with Staphylococcus aureus [12]; 4 µg/mL in the assay with Bacillus subtilis; 64 µg/mL with Escherichia coli [13].

For `CCCCCCOc1ccc(/C=C/c2cc(-c3ccccc3)[n+](C)cc2-c2ccccc2)cc1.[I-]`, the minimal inhibitory concentration (MIC) with Enterococcus faecalis [1] came to 2 µg/mL; in [2], 2 µg/mL; with Bacillus pumilus it was 0.5 µg/mL; in the assay on Staphylococcus aureus [3] it was 0.5 µg/mL; in the assay on Staphylococcus aureus [4], 2 µg/mL; with Enterococcus faecalis [5] it was 2 µg/mL. In addition, the MIC is 2 µg/mL with Streptococcus pyogenes [6]; 2 µg/mL with Streptococcus pyogenes [7]; 0.5 µg/mL in the assay with Staphylococcus aureus [8]; 8 µg/mL with Klebsiella pneumoniae; 4 µg/mL in the assay on Escherichia coli [9]; 4 µg/mL in the assay with Acinetobacter baumannii. Further, the MIC with Enterococcus faecium [10] worked out at 1 µg/mL; in the assay on Enterococcus faecium [11], 2 µg/mL; with Staphylococcus aureus [12] it was 2 µg/mL; in the assay on Bacillus subtilis it was 0.5 µg/mL; with Escherichia coli [13], 4 µg/mL.

In the case of `C[n+]1cc(-c2ccccc2)cc(/C=C/c2ccc(Cl)cc2)c1-c1ccccc1.[I-]`, the minimum inhibitory concentration (MIC) came out at 16 µg/mL in the assay on Enterococcus faecalis [1]; 8 µg/mL in assay [2]; 8 µg/mL with Bacillus pumilus; 2 µg/mL in the assay on Staphylococcus aureus [3]; 4 µg/mL in the assay on Staphylococcus aureus [4]; 16 µg/mL with Enterococcus faecalis [5]. Besides, the MIC was 4 µg/mL in the assay with Streptococcus pyogenes [6]; 4 µg/mL in the assay on Streptococcus pyogenes [7]; 2 µg/mL in the assay with Staphylococcus aureus [8]; more than 64 µg/mL in the assay on Klebsiella pneumoniae; more than 64 µg/mL in the assay with Escherichia coli [9]; 8 µg/mL with Acinetobacter baumannii. Moreover, the minimum inhibitory concentration (MIC) in the assay with Enterococcus faecium [10] stood at 16 µg/mL; in the assay on Enterococcus faecium [11] it was 16 µg/mL; with Staphylococcus aureus [12], 16 µg/mL; with Bacillus subtilis it was 4 µg/mL; with Escherichia coli [13], 64 µg/mL.

As to `CN[C@H](CC(C)C)C(=O)N[C@H]1C(=O)N[C@@H](CC(N)=O)C(=O)N[C@H]2C(=O)N[C@H]3C(=O)N[C@H](C(=O)N[C@H](C(=O)O)c4cc(O)cc(O)c4-c4cc3ccc4O)[C@H](O)c3ccc(c(Cl)c3)Oc3cc2cc(c3O[C@@H]2O[C@H](CO)[C@@H](O)[C@H](O)[C@H]2O[C@H]2C[C@](C)(N)[C@H](O)[C@H](C)O2)Oc2ccc(cc2Cl)[C@H]1O` [VANCOMYCIN], the MIC in the assay on Enterococcus faecalis [1] is more than 64 µg/mL; in the assay on Bacillus pumilus, 2 µg/mL (≈ 1.38 µM); with Streptococcus pyogenes [6], 1 µg/mL (≈ 0.69 µM); in the assay on Streptococcus pyogenes [7] it was 0.25 µg/mL (≈ 0.173 µM); in the assay with Klebsiella pneumoniae, more than 64 µg/mL; in the assay with Escherichia coli [9], more than 64 µg/mL. Also, the minimum inhibitory concentration (MIC) with Acinetobacter baumannii is 64 µg/mL (≈ 44.2 µM); with Enterococcus faecium [10], more than 64 µg/mL; with Bacillus subtilis, 0.5 µg/mL (≈ 0.345 µM); with Escherichia coli [13], more than 64 µg/mL.

Consider `CC(=O)Nc1ccc(/C=C/c2cc(-c3ccc4ccccc4c3)[n+](C)cc2-c2ccccc2)cc1.[I-]`, for which the minimum inhibitory concentration (MIC) with Bacillus pumilus is 16 µg/mL; with Staphylococcus aureus [3], 0.5 µg/mL; in the assay with Enterococcus faecalis [5], 16 µg/mL; with Staphylococcus aureus [8] it was 1 µg/mL; with Klebsiella pneumoniae, more than 64 µg/mL; with Escherichia coli [9] it was more than 64 µg/mL. Also, the minimum inhibitory concentration (MIC) in the assay on Acinetobacter baumannii was 32 µg/mL; in the assay on Enterococcus faecium [11], 32 µg/mL; in the assay with Bacillus subtilis, 1 µg/mL; in the assay with Escherichia coli [13] it was more than 64 µg/mL.
